According to patent US9371320B2, “Heterocyclic compound” (TAKEDA PHARMACEUTICAL COMPANY LIMITED, priority 2012, dated 2016):

Experiments:
Tyk2 = target: T1, Tyk2 (Homo sapiens, UniProt P29597); experiment: Tyk2 enzyme inhibition test (LANCE method); assay type: biochemical; conditions: for inhibition at 1 µM: test compound 1 μM, read-out: Inhibitory rate (%) Tyk2 1 μM; for inhibition at 10 µM: test compound 10 μM, read-out: Inhibitory rate (%) Tyk2 10 μM
T1 construct: purchased Invitrogen
How it was run: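 LANCE TR-FRET read-out (ex 340/em 665 nm, 100 μs delay) of ULight-JAK1 phosphorylation, with no-enzyme wells as 100% inhibition. Reaction run 1 h at room temperature in pH 7.5 HEPES buffer; enzyme 375 ng/mL, substrate 300 nM and ATP 30 μM are solution concentrations before mixing.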

JAK1 = target: T2, JAK1 (Homo sapiens, UniProt P23458); experiment: JAK1 enzyme inhibition test (LANCE method); assay type: biochemical; conditions: for inhibition at 1 µM: test compound 1 μM, read-out: Inhibitory rate (%) JAK1 1 μM; for inhibition at 10 µM: test compound 10 μM, read-out: Inhibitory rate (%) JAK1 10 μM
T2 construct: purchased Invitrogen
How it was run: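 Reactions ran 1 h at room temperature in HEPES pH 7.5/MgCl2 buffer, with ATP solution at 150 μM and JAK1 and ULight peptide solutions at 187.5 ng/mL and 300 nM. Reactions were stopped with EDTA, and phosphorylation was read by Eu antibody time-resolved fluorescence at 665 nm. Inhibition was scaled to a no-enzyme control as 100%.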

T2 sequence (P23458 whole entry): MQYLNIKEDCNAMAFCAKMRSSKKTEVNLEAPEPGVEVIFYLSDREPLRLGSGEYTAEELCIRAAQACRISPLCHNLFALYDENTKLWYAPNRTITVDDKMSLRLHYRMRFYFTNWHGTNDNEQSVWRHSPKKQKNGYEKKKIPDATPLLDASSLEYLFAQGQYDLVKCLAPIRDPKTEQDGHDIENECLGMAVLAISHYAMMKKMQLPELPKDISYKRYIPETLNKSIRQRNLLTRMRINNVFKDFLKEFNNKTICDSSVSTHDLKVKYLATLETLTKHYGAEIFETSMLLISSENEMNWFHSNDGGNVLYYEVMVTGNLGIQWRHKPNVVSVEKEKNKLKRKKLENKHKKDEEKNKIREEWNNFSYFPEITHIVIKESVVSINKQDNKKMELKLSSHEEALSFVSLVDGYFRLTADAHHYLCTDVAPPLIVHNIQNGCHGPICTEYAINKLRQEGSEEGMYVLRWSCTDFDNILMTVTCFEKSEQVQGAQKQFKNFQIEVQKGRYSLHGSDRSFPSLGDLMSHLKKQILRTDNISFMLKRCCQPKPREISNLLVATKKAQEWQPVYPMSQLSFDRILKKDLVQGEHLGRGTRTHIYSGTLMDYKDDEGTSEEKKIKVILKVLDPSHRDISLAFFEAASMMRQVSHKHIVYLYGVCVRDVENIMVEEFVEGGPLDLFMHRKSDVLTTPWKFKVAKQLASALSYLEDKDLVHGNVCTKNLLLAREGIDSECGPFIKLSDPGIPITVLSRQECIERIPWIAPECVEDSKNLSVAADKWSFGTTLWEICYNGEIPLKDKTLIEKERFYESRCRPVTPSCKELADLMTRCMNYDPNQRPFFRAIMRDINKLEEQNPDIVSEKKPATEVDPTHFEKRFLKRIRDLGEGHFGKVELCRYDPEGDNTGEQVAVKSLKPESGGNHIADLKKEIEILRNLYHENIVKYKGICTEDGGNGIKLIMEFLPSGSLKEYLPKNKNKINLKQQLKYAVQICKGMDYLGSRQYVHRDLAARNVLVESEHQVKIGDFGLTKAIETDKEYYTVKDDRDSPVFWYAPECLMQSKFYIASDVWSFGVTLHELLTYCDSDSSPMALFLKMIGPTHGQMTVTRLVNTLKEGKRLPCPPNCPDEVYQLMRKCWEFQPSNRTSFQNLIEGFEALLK
T1 sequence (P29597 whole entry): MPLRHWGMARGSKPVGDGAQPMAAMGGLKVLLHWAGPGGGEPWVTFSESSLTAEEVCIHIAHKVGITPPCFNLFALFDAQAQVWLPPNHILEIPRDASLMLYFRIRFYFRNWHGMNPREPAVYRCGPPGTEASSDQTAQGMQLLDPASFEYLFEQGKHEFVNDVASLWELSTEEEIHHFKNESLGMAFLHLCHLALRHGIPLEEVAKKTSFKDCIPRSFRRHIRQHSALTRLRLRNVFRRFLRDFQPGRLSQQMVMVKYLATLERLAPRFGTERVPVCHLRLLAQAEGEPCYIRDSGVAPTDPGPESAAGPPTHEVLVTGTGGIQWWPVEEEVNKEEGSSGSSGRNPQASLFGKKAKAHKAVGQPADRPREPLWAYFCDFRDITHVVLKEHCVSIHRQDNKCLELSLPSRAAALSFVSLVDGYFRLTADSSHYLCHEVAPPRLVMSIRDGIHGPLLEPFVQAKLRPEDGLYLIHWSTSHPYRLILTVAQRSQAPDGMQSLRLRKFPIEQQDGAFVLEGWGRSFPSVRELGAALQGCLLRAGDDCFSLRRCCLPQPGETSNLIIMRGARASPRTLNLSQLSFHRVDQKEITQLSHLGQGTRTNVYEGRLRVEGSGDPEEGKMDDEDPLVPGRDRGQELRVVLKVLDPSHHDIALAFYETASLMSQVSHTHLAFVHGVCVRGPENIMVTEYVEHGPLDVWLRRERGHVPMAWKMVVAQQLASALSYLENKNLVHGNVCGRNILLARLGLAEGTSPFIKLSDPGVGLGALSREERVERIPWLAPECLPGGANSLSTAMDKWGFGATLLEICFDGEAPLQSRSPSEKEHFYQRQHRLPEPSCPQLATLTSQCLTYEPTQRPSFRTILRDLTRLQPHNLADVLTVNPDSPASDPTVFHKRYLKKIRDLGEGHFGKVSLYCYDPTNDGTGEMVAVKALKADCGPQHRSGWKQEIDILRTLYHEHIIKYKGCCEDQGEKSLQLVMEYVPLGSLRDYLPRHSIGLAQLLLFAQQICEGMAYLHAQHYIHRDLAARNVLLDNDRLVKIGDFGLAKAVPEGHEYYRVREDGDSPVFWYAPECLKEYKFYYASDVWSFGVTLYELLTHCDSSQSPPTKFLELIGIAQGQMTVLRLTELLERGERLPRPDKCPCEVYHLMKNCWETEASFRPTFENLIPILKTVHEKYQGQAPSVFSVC

| inhibition at 1 µM (Tyk2) [%] | inhibition at 1 µM (JAK1) [%] | inhibition at 10 µM (Tyk2) [%] | inhibition at 10 µM (JAK1) [%] | Compound |
| --- | --- | --- | --- | --- |
| 94 | 41 | – | – | O=c1[nH]ccc2c1c(-c1cccc(CN3CCC(F)(F)C3)c1)nn2-c1c(F)cccc1F [Example 261, 1-(2,6-difluorophenyl)-3-(3-((3,3-difluoropyrrolidin-1-yl)methyl)phenyl)-1,5-dihydro-4H-pyrazolo[4,3-c]pyridin-4-one] |
| 92 | 97 | – | – | CC[C@@H](COC)n1nc(-c2csc(C(N)=O)c2)c2c(=O)[nH]ccc21 [Example 262, 4-(1-((2S)-1-methoxybutan-2-yl)-4-oxo-4,5-dihydro-1H-pyrazolo[4,3-c]pyridin-3-yl)thiophene-2-carboxamide] |
| 90 | 97 | – | – | CC[C@H](COC)n1nc(-c2csc(C(N)=O)c2)c2c(=O)[nH]ccc21 [Example 263, 4-(1-((2R)-1-methoxybutan-2-yl)-4-oxo-4,5-dihydro-1H-pyrazolo[4,3-c]pyridin-3-yl)thiophene-2-carboxamide] |
| – | – | 12 | 44 | CC(C)(C)n1nc(N)c2c(=O)[nH]ccc21 [Example 264, 3-amino-1-tert-butyl-1,5-dihydro-4H-pyrazolo[4,3-c]pyridin-4-one] |
| – | – | 24 | 21 | CC(C)(C)n1nc(NC(=O)c2ccccc2)c2c(=O)[nH]ccc21 [Example 265, N-(1-tert-butyl-4-oxo-4,5-dihydro-1H-pyrazolo[4,3-c]pyridin-3-yl)benzamide] |
| 91 | 85 | – | – | O=c1[nH]ccc2c1c(-c1ccc(N3CCOCC3)cc1)nn2C1CCC(F)(F)CC1 [Example 266, 1-(4,4-difluorocyclohexyl)-3-(4-(morpholin-4-yl)phenyl)-1,5-dihydro-4H-pyrazolo[4,3-c]pyridin-4-one] |
| – | – | 31 | 17 | NC(=O)c1ccc(F)c(-c2nn(-c3c(F)cccc3F)c3cc[nH]c(=O)c23)c1 [Example 267, 3-(1-(2,6-difluorophenyl)-4-oxo-4,5-dihydro-1H-pyrazolo[4,3-c]pyridin-3-yl)-4-fluorobenzamide] |
| 33 | 4 | – | – | NC(=O)c1cc(F)cc(-c2nn(-c3c(F)cccc3F)c3cc[nH]c(=O)c23)c1 [Example 268, 3-(1-(2,6-difluorophenyl)-4-oxo-4,5-dihydro-1H-pyrazolo[4,3-c]pyridin-3-yl)-5-fluorobenzamide] |
| – | – | 29 | 24 | NC(=O)c1ccc(F)c(-c2nn(-c3c(F)cccc3F)c3c(Cl)c[nH]c(=O)c23)c1 [Example 269, 3-(7-chloro-1-(2,6-difluorophenyl)-4-oxo-4,5-dihydro-1H-pyrazolo[4,3-c]pyridin-3-yl)-4-fluorobenzamide] |
| 69 | 0 | – | – | NC(=O)c1cc(F)cc(-c2nn(-c3c(F)cccc3F)c3c(Cl)c[nH]c(=O)c23)c1 [Example 270, 3-(7-chloro-1-(2,6-difluorophenyl)-4-oxo-4,5-dihydro-1H-pyrazolo[4,3-c]pyridin-3-yl)-5-fluorobenzamide] |
| – | – | 26 | -1 | CNC(=O)c1ccc(F)c(-c2nn(-c3c(F)cccc3F)c3c(Cl)c[nH]c(=O)c23)c1 [Example 271, 3-(7-chloro-1-(2,6-difluorophenyl)-4-oxo-4,5-dihydro-1H-pyrazolo[4,3-c]pyridin-3-yl)-4-fluoro-N-methylbenzamide] |
| – | – | 25 | 12 | CNC(=O)c1ccc(F)c(-c2nn(-c3c(F)cccc3F)c3cc[nH]c(=O)c23)c1 [Example 272, 3-(1-(2,6-difluorophenyl)-4-oxo-4,5-dihydro-1H-pyrazolo[4,3-c]pyridin-3-yl)-4-fluoro-N-methylbenzamide] |
| 71 | 1 | – | – | CNC(=O)c1cc(F)cc(-c2nn(-c3c(F)cccc3F)c3c(Cl)c[nH]c(=O)c23)c1 [Example 273, 3-(7-chloro-1-(2,6-difluorophenyl)-4-oxo-4,5-dihydro-1H-pyrazolo[4,3-c]pyridin-3-yl)-5-fluoro-N-methylbenzamide] |
| 77 | 34 | – | – | CNC(=O)c1cc(F)cc(-c2nn(-c3c(F)cccc3F)c3cc[nH]c(=O)c23)c1 [Example 274, 3-(1-(2,6-difluorophenyl)-4-oxo-4,5-dihydro-1H-pyrazolo[4,3-c]pyridin-3-yl)-5-fluoro-N-methylbenzamide] |
| 98 | 96 | – | – | O=C1CCCN1Cc1ccc(-c2nn(-c3c(F)cccc3F)c3cc[nH]c(=O)c23)cc1 [Example 275, 1-(2,6-difluorophenyl)-3-(4-((2-oxopyrrolidin-1-yl)methyl)phenyl)-1,5-dihydro-4H-pyrazolo[4,3-c]pyridin-4-one] |
| 99 | 91 | – | – | O=C1NCCN1c1ccc(-c2nn(-c3c(F)cccc3F)c3cc[nH]c(=O)c23)cc1 [Example 276, 1-(2,6-difluorophenyl)-3-(4-(2-oxoimidazolidin-1-yl)phenyl)-1,5-dihydro-4H-pyrazolo[4,3-c]pyridin-4-one] |
| 99 | 95 | – | – | CC(=O)Nc1ccc(-c2nn(-c3c(F)cccc3F)c3cc[nH]c(=O)c23)cc1 [Example 277, N-(4-(1-(2,6-difluorophenyl)-4-oxo-4,5-dihydro-1H-pyrazolo[4,3-c]pyridin-3-yl)phenyl)acetamide] |
| 98 | 92 | – | – | O=c1[nH]ccc2c1c(-c1cccc(CO)c1)nn2-c1c(F)cccc1F [Example 278, 1-(2,6-difluorophenyl)-3-(3-(hydroxymethyl)phenyl)-1,5-dihydro-4H-pyrazolo[4,3-c]pyridin-4-one-] |
| 99 | 96 | – | – | CC(=O)N1CCN(c2ccc(-c3nn(-c4c(F)cccc4F)c4cc[nH]c(=O)c34)cc2)CC1 [Example 279, 3-(4-(4-acetylpiperazin-1-yl)phenyl)-1-(2,6-difluorophenyl)-1,5-dihydro-4H-pyrazolo[4,3-c]pyridin-4-one] |
| 97 | 94 | – | – | NC(=O)c1cc(-c2nn(C3CCCC3)c3c(Br)c[nH]c(=O)c23)cs1 [Example 280, 4-(7-bromo-1-cyclopentyl-4-oxo-4,5-dihydro-1H-pyrazolo[4,3-c]pyridin-3-yl)thiophene-2-carboxamide] |
| 96 | 96 | – | – | Cc1c[nH]c(=O)c2c(-c3csc(C(N)=O)c3)nn(C3CCCC3)c12 [Example 281, 4-(1-cyclopentyl-7-methyl-4-oxo-4,5-dihydro-1H-pyrazolo[4,3-c]pyridin-3-yl)thiophene-2-carboxamide] |
| 85 | 76 | – | – | NC(=O)c1cc(-c2nn(C3CCCC3)c3c(C4CC4)c[nH]c(=O)c23)cs1 [Example 282, 4-(1-cyclopentyl-7-cyclopropyl-4-oxo-4,5-dihydro-1H-pyrazolo[4,3-c]pyridin-3-yl)thiophene-2-carboxamide] |
| 93 | 98 | – | – | O=c1[nH]ccc2c1c(Nc1ccccc1)nn2C1CCCC1 [Example 283, 3-anilino-1-cyclopentyl-1,5-dihydro-4H-pyrazolo[4,3-c]pyridin-4-one] |
| 96 | 99 | – | – | NS(=O)(=O)c1cccc(Nc2nn(C3CCCC3)c3cc[nH]c(=O)c23)c1 [Example 284, 3-((1-cyclopentyl-4-oxo-4,5-dihydro-1H-pyrazolo[4,3-c]pyridin-3-yl)amino)benzenesulfonamide] |
| 82 | 70 | – | – | NS(=O)(=O)c1cccc(Nc2nn(C3CCCC3)c3c(Br)c[nH]c(=O)c23)c1 [Example 285, 3-((7-bromo-1-cyclopentyl-4-oxo-4,5-dihydro-1H-pyrazolo[4,3-c]pyridin-3-yl)amino)benzenesulfonamide] |
| 97 | 98 | – | – | CN(C)C(=O)c1cc(-c2nn(C3CCCC3)c3cc[nH]c(=O)c23)cs1 [Example 286, 4-(1-cyclopentyl-4-oxo-4,5-dihydro-1H-pyrazolo[4,3-c]pyridin-3-yl)-N,N-dimethylthiophene-2-carboxamide] |
| 94 | 55 | – | – | O=c1[nH]ccc2c1c(-c1cccc(CN3CCCC3)c1)nn2-c1c(F)cccc1F [Example 288, 1-(2,6-difluorophenyl)-3-(3-(pyrrolidin-1-ylmethyl)phenyl)-1,5-dihydro-4H-pyrazolo[4,3-c]pyridin-4-one] |
| 99 | 92 | – | – | CN(C)NC(=O)c1ccc(-c2nn(-c3c(F)cccc3F)c3cc[nH]c(=O)c23)cc1 [Example 289, 4-(1-(2,6-difluorophenyl)-4-oxo-4,5-dihydro-1H-pyrazolo[4,3-c]pyridin-3-yl)-N′,N′-dimethylbenzhydrazide] |
| 95 | 98 | – | – | NS(=O)(=O)c1ccc(-c2nn(C3CCC(F)(F)CC3)c3cc[nH]c(=O)c23)cc1 [Example 290, 4-(1-(4,4-difluorocyclohexyl)-4-oxo-4,5-dihydro-1H-pyrazolo[4,3-c]pyridin-3-yl)benzenesulfonamide] |
| 99 | 97 | – | – | O=C1CCCN1c1ccc(-c2nn(-c3c(F)cccc3F)c3cc[nH]c(=O)c23)cc1 [Example 292, 1-(2,6-difluorophenyl)-3-(4-(2-oxopyrrolidin-1-yl)phenyl)-1,5-dihydro-4H-pyrazolo[4,3-c]pyridin-4-one] |
